# Reference: patent publication US20200230126A1, “TARGETED THERAPEUTICS” (TARVEDA THERAPEUTICS, INC., priority 2017, published 2020)
# Legend:
# [1] = pH-dependent equilibrium of lactone ring and open chain carboxylic acid form in solution; assay type: physicochemical
# Excerpt: In solution, SDC-TRAP-0063 contains a lactone ring at pH-dependent equilibrium with the corresponding open chain carboxylic acid form.
# [2] = Repeat dose GLP toxicity study in rats; assay type: in vivo, rat; settings: for AUC(0-t): in vivo, 30 mg/kg, at the STD10 in the GLP toxicology study
# Procedure: (§1) The SDC-TRAP-0063 selected starting dose is 30 mg IV on D1, D8, and D15 of each 28-day cycle. ICH S9 recommends that a starting clinical dose for a first-in-human study should be either 1/10th of the STD10 in rodent toxicity studies or ⅙th of the HNSTD in non-rodent toxicity studies.
# (§2) Based on the findings in the repeat dose GLP toxicity study in rats, the dose of one-tenth the rat STD10 gives a Human Equivalent Dose (HED) of 0.48 mg/kg informing the SDC-TRAP-0063 first-in-human starting dose (Table 10). The calculation based on the dog highest non-severe toxic dose (HNSTD) of 20 mg/kg determined in the repeat dose GLP toxicity study in dogs is shown in Table 11 and results in a higher HED of 1.9 mg/kg substantiating that rat is the more sensitive species. The human starting dose of 0.48 mg/kg is equivalent to 18 mg/m^2. Assuming an average human weight of 60 kg, the starting dose translates to 29 mg or using an average body surface area of 1.7 m^2, the starting dose is 30 mg.
# [3] = Repeat dose GLP toxicity study in dogs; assay type: in vivo, dog; settings: for AUC(0-t): in vivo, 20 mg/kg, at the HNSTD, read-out: exposure (AUCt)
# Procedure: as §1, §2
# mice xenografts = test: Anti-tumor efficacy in mice xenografts; assay type: in vivo, mouse; settings: once weekly administration
# Procedure: (§3) Exposures achieved in these toxicology studies exceed the levels anticipated to show anti-tumor activity, based on anti-tumor efficacy determined in mice. The minimum dose for anti-tumor efficacy in mice xenografts was determined to be 20 mg/kg with once weekly administration. […] This exposure is similar to that in rats at the STD10 in the GLP toxicology study where the AUCt values determined were 107 and 68 μg·h/mL in males and female rats, respectively. The mouse exposure is lower that the exposure at the HNSTD in dogs, 181 and 183 μg·h/mL in male and female dogs, respectively. Using body surface area, the dog HNSTD for SDC-TRAP-0063 is 6.6-fold higher than the minimum dose for efficacy in the mouse while the rat STD10 is 3 fold higher.
# Exposure in mice = settings: mouse, in vivo, 20 mg/kg dose
# Procedure: as §3
# tumor cells = test: DNA double-strand breaks in tumor cells; assay type: cell-based; settings: treatment of tumor cells
# Procedure: The histone H2A variant H2AX (γ-H2AX) is an indicator of DNA double-strand breaks and is a sensitive marker of DNA damage response. During the DNA damage response, double-stranded breaks (DSB) are generated that result in the rapid phosphorylation of γ-H2AX. […] These DSBs can be quantitated by measuring γ-H2AX levels. In in vivo pharmacology studies, PDc response to SDC-TRAP-0063 was assessed by immunostaining for γ-H2AX and was associated with anti-tumor activity of SDC-TRAP-0063. γ-H2AX has been used in clinical studies to monitor DNA damage induced by topoisomerase I inhibition, ionizing radiation, or Weel inhibition. During Phase 1 only, for patients who sign the provision of optional tumor biopsies and hair follicle collections, levels of γ-H2AX are evaluated in paired tumor biopsies and hair follicles to check for evidence of SDC-TRAP-0063-induced DNA damage response. Based on the mechanism of action of SDC-TRAP-0063, it would be expected that evidence of DNA damage, as measured by γ-H2AX and/or other markers of DNA damage, would be greater in tumor tissue compared to hair follicle. It is estimated that 10 high quality pairs of tumor biopsies and hair follicles are needed to adequately explore the relationship between SDC-TRAP-0063 treatment and DNA damage response.
# [4] = Light sensitivity of the diluted solution; assay type: physicochemical; settings: duration of 6 hours
# Excerpt: The diluted solution is attached to an infusion set free of diethylhexyl-phthalate (DEHP) and containing a 0.2 micron filter.
# [5] = mg/kg human dose multiplied by 37
compound,measurement,setting,value
CCc1c2c(nc3ccc(OC(=O)N4CCC(CCn5ccc6cc(-n7c(O)nnc7-c7cc(C(C)C)c(O)cc7O)ccc65)CC4)cc13)-c1cc3c(c(=O)n1C2)COC(=O)[C@]3(O)CC [SDC-TRAP-0063],pKa,[1],9.3
same,HED of 1/10 Rat STD10,[2]; 1/10 rat STD10 divided by 6.2 (60 kg human),0.48 mg/kg
same,Rat 1/10 STD10,[2]; mg/kg dose in rat multiplied by 6,18 mg/m^2
same,HED of 1/10 Rat STD10,[2]; [5],18 mg/m^2
same,1/10 Rat STD10,[2]; rat,3.0 mg/kg
same,AUC(0-t),"[2]; rat, female rats",68 µg·h/mL
same,AUC(0-t),"[2]; rat, male rats",107 µg·h/mL
same,Rat STD10,[2]; repeat dose GLP toxicity study in rats,30 mg/kg
same,rat STD10 relative to the minimum dose for efficacy in the mouse,[2]; using body surface area,3 fold
same,HED of 1/6 Dog HNSTD,[3]; 1/6 dog HNSTD divided by 1.8 (60 kg human),1.9 mg/kg
same,1/6 Dog HNSTD,[3]; dog,3.3 mg/kg
same,AUC(0-t),"[3]; dog, female dogs",183 µg·h/mL
same,AUC(0-t),"[3]; dog, male dogs",181 µg·h/mL
same,Dog 1/6 HNSTD,[3]; mg/kg dose in dog multiplied by 20,67 mg/m^2
same,HED of 1/6 Dog HNSTD,[3]; [5],69 mg/m^2
same,Dog HNSTD,[3]; repeat dose GLP toxicity study in dogs,20 mg/kg
same,dog HNSTD relative to the minimum dose for efficacy in the mouse,[3]; using body surface area,6.6 fold
same,minimum dose for anti-tumor efficacy,mice xenografts,20 mg/kg
same,AUC(0-t),Exposure in mice,112 µg·h/mL
same,DNA double-stranded breaks (DSBs),tumor cells,induces DNA DSBs
same,light sensitivity of the diluted solution,[4],not light sensitive
